From patent publication US11007155B2, “Method for producing a sea urchin extract enriched with 1,4-polyhydroxylated naphthoquinones with antimicrobial and antioxidant activity” (Universidad Técnica Federico Santa María, priority 2016, dated 2021) come the findings set out here.

In brackets after ≈: the same amount, converted by molar mass. Like-named read-outs stand apart in the source and are kept apart here.

Series [1] is described as follows: DPPH radical capture assay (antioxidant activity). The text has this: The antioxidant activity of EqA is dependent on the concentration of the pigment, the pH and the concentration of calcium. In the absence of calcium, the antioxidant activity is observed only at alkaline pH, but in the presence of calcium, the antioxidant activity is observed at alkaline pH and neutral pH, by the formation of stable semiquinone-calcium complexes (Levedeb et al., Archives of Biochemistry and Biophysics (2003) 413: 191-198). The invention is illustrated in the following examples:
The antioxidant activity of the purified extract and equinochrome A was evaluated by the DPPH radical capture assay (2, 2-diphenyl-1-picryihydracil) (Shankarlal et al., (2011) Am-Euras, J. Sci. Res. 6:178-181).
For orientation: Loss of DPPH colour is used to gauge radical scavenging.

Series [2] is described as follows: Storage stability of the product. The note with it: stored at −20° C. Type of series: physicochemical. The text has this:
The process of the invention begins with spawning, which is induced by injection of KCl (0.5 M) into the perivisceral coelom. The induced urchin females are deposited on a smaller diameter vessel, which contains filtered and sterile seawater, where the eggs are received. The collected eggs are filtered, preferably using a fine sieve of pore size 1/32 inches (0.079375 centimeters) to remove impurities. Afterwards it is washed with filtered and sterile seawater. The excess water is subsequently removed by decanting the eggs. Then the eggs are dried at 60-80° C. for 24-72 hours, and are ground to a fine powder, which is cleaned by passing through a sieve of pore size 1/120 inches (0.021 centimeters). The product is then extracted by mixing the powder with methanol or ethanol at a proportion of 1:30 v/v under constant agitation. It is further filtered to remove the egg debris and evaporated under vacuum at 55° C. to 1/10 of the initial volume. The resulting extract is purified by chromatography with a C18 RP column, elution with 30-40% methanol to extract mainly spinochrome E, and finally an elution with 100% ethanol for the extraction of EqA.

For series [3], the system named is Pseudomona aeruginosa. Briefly: Antibacterial activity (MIC) against clinical isolates. Type of series: cell-based. From the text: (§1) In order to test the antibiotic activity of these compounds, the inventors studied the antibacterial activity, measured as minimum inhibitory concentration (MIC), of the black sea urchin (Tetrapygus niger) extract enriched in equinochrome A (85% purity) and the purified EqA.

Series [4] concerns S. aureus. Described as above. Type of series: cell-based. To be noted: Staphylococcus aureus, resistant to penicillin.
Source text: as §1

In series [5] the test system is Klebsiella pneumoniae. The description is as above. The class given is cell-based. The note with it: resistant to ampicillin, aztreonam, cephalothin, cefepime, cefotaxime, ceftazidime.
Source text: as §1

Series [6] concerns Klebsiella oxytica. The description is as above. Type of series: cell-based. To be noted: resistant to ampicillin.
Source text: as §1

For series [7], the system named is E. coli. The series is described as above. The class given is cell-based. The note with it: Escherichia coli.
Source text: as §1

Regarding `CCc1c(O)c(O)c2c(c1O)C(=O)C(O)=C(O)C2=O` [EqA, 6-ethyl-2,3,5,7,8-pentahydroxy-1,4-naphthoquinone], the concentration for a half-maximal effect (EC50) (usually the concentration giving half of the maximal effect) in series [1] stood at 13 µM. Also, the “antioxidant activity compared with reference antioxidants” value in series [1] is “greater than the antioxidant activities of α-tocopherol and ascorbic acid”. Besides, the storage stability entry in series [2] was “high stability for months”. Besides, the minimum inhibitory concentration (MIC) (in general, the lowest concentration that inhibits growth of the organism) in series [3] (pH 5, pH 5, aspirado traqueal isolate, resistant to ampicillin, aztreonam, cefepime, ceftazidime, imipenem, meropenem) was 32 µg/mL (≈ 120 µM); in series [3] (pH 5, pH 5, aspirado traqueal isolate, resistant to ampicillin, aztreonam, ceftazidime, imipenem, meropenem) it was 64 µg/mL (≈ 240 µM); in series [3] (pH 5, pH 5, aspirado traqueal isolate, resistant to ampicillin, ciprofloxacin, imipenem, meropenem) it was 32 µg/mL (≈ 120 µM); in series [3] (pH 5, pH 5, cateter isolate, resistant to ampicillin, aztreonam, cefepime, ceftazidime, imipenem, meropenem), 32 µg/mL (≈ 120 µM); in series [3] (pH 5, pH 5, hemocultivo isolate, resistant to cefepime, ceftazidime, ciprofloxacin, gentamicin) it was 32 µg/mL (≈ 120 µM); in series [3] (pH 7, pH 7, aspirado traqueal isolate, resistant to ampicillin, aztreonam, cefepime, ceftazidime, imipenem, meropenem), above 64 µg/mL. Also, the MIC was above 64 µg/mL in series [3] (pH 7, pH 7, aspirado traqueal isolate, resistant to ampicillin, aztreonam, ceftazidime, imipenem, meropenem); above 64 µg/mL in series [3] (pH 7, pH 7, aspirado traqueal isolate, resistant to ampicillin, ciprofloxacin, imipenem, meropenem); above 64 µg/mL in series [3] (pH 7, pH 7, cateter isolate, resistant to ampicillin, aztreonam, cefepime, ceftazidime, imipenem, meropenem); above 64 µg/mL in series [3] (pH 7, pH 7, hemocultivo isolate, resistant to cefepime, ceftazidime, ciprofloxacin, gentamicin); 8 µg/mL (≈ 30.1 µM) in series [4] (pH 5, pH 5, hemocultivo isolate (1st, r13)); 8 µg/mL (≈ 30.1 µM) in series [4] (pH 5, pH 5, hemocultivo isolate (2nd, r14)). Besides, the MIC in series [4] (pH 5, pH 5, hemocultivo isolate (3rd, r15)) was 8 µg/mL (≈ 30.1 µM); in series [4] (pH 5, pH 5, hemocultivo isolate, oxacillin, erythromycin, clindamycin, ciprofloxacin), 32 µg/mL (≈ 120 µM); in series [4] (pH 5, pH 5, isolate from tracheal aspirate), 8 µg/mL (≈ 30.1 µM); in series [4] (pH 7, pH 7, hemocultivo isolate (1st, r13)) it was 32 µg/mL (≈ 120 µM); in series [4] (pH 7, pH 7, hemocultivo isolate (2nd, r14)), 32 µg/mL (≈ 120 µM); in series [4] (pH 7, pH 7, hemocultivo isolate (3rd, r15)), 32 µg/mL (≈ 120 µM). The MIC in series [4] (pH 7, pH 7, hemocultivo isolate, oxacillin, erythromycin, clindamycin, ciprofloxacin) is 32 µg/mL (≈ 120 µM); in series [4] (pH 7, pH 7, isolate from tracheal aspirate) it was 32 µg/mL (≈ 120 µM); in series [5] (Klebsiella pneumoniae, pH 5, urine isolate, ertapenem, nitrofurantoin, read-out: MIC), 64 µg/mL (≈ 240 µM); in series [5] (Klebsiella pneumoniae, pH 7, urine isolate, ertapenem, nitrofurantoin, read-out: MIC) it was above 64 µg/mL; in series [5] (pH 5, hemocultivo isolate, ciprofloxacin, chloramphenicol, colistin, cotrimoxazole, gentamicin), 64 µg/mL (≈ 240 µM); in series [5] (pH 5, urine isolate, nitrofurantoin), 64 µg/mL (≈ 240 µM). The MIC in series [5] (pH 7, hemocultivo isolate, ciprofloxacin, chloramphenicol, colistin, cotrimoxazole, gentamicin) was above 64 µg/mL; in series [5] (pH 7, urine isolate, nitrofurantoin), above 64 µg/mL; in series [6] (pH 5, hemocultivo isolate) it was 64 µg/mL (≈ 240 µM); in series [6] (pH 7, hemocultivo isolate), above 64 µg/mL; in series [7] (pH 5, pH 5, hemocultivo isolate, antibiotic resistance —), 32 µg/mL (≈ 120 µM); in series [7] (pH 5, pH 5, hemocultivo isolate, resistant to ampicillin, chloramphenicol, cotrimoxazole) it was 32 µg/mL (≈ 120 µM). Also, the minimal inhibitory concentration (MIC) is 32 µg/mL (≈ 120 µM) in series [7] (pH 5, pH 5, urine isolate, resistant to ampicillin, aztreonam, cefepime, cefotaxime, ceftazidime, ciprofloxacin); above 64 µg/mL in series [7] (pH 7, pH 7, hemocultivo isolate, antibiotic resistance —); above 64 µg/mL in series [7] (pH 7, pH 7, hemocultivo isolate, resistant to ampicillin, chloramphenicol, cotrimoxazole); 64 µg/mL (≈ 240 µM) in series [7] (pH 7, pH 7, urine isolate, resistant to ampicillin, aztreonam, cefepime, cefotaxime, ceftazidime, ciprofloxacin).
With `O=C1O[C@H]([C@@H](O)CO)C(O)=C1O` [ascorbic acid, reference compound], the EC50 in series [1] amounted to 45 µM.
Same read-out and setting: as for `Cc1c(C)c2c(c(C)c1O)CC[C@@](C)(CCC[C@H](C)CCC[C@H](C)CCCC(C)C)O2` [α-tocoferol, reference compound], the figure is 100 µM.
